Laboratory results from patent US11839214B2, “Fungicidal mixture comprising substituted pyridines” (BASF SE, priority 2017, dated 2023).
Like-named read-outs stand apart in the source and are kept apart here.

Columns and labels:
Format in all cases: cell-based
Pyricularia oryzae = experiment: microbe, parasite or virus in culture; settings: for Observed efficacy: single active compound
Botrytis cinerea = experiment: Activity against the grey mold Botrytis cinerea in the microtiterplate test
Septoria tritici = experiment: Activity against leaf blotch on wheat caused by Septoria tritici (microtiterplate test)
Sclerotinia sclerotiorum = experiment: Activity against Sclerotinia sclerotiorum in the microtiterplate test; settings: Sclerotinia sclerotiorum, 168 h, read-out: Observed efficacy
[1] = single active compound, 0.063 ppm
[2] = Botrytis cinerea, 168 h, single active compound, 1 ppm, read-out: Observed efficacy
[3] = Pyricularia oryzae, 168 h, read-out: Observed efficacy
[4] = Zymoseptoria tritici, 168 h, single active, 1 ppm, read-out: Observed efficacy
[5] = Botrytis cinerea, 168 h, single active compound, 4 ppm, read-out: Observed efficacy
[6] = Botrytis cinerea, 168 h, single active compound, read-out: Observed efficacy
[7] = Zymoseptoria tritici, 168 h, single active, 0.25 ppm, read-out: Observed efficacy
[8] = Zymoseptoria tritici, 168 h, single active, 4 ppm, read-out: Observed efficacy
[9] = Zymoseptoria tritici, 168 h, single active, read-out: Observed efficacy
[10] = Zymoseptoria tritici, 168 h, single active, 0.016 ppm, read-out: Observed efficacy
[11] = single active compound, 0.25 ppm
[12] = Zymoseptoria tritici, 168 h, read-out: Observed efficacy
[13] = Zymoseptoria tritici, 168 h, single active, 0.063 ppm, read-out: Observed efficacy
[14] = Zymoseptoria tritici, 168 h, single active, 0.004 ppm, read-out: Observed efficacy
[15] = Botrytis cinerea, 168 h, read-out: Observed efficacy
[16] = Botrytis cinerea, 168 h, single active compound, 0.063 ppm, read-out: Observed efficacy

Cc1ccc(C(=O)OCc2ccc(Oc3ccccc3)cc2)c(N)n1 [Aminopyrifen, aminopyrifen]
Observed efficacy (Pyricularia oryzae; 0.001 ppm): 0% | Observed efficacy (Pyricularia oryzae; 0.004 ppm): 6% | Observed efficacy (Pyricularia oryzae; 0.016 ppm): 36%

CO/C=C(/C(=O)OC)c1ccccc1Oc1cc(Oc2ccccc2C#N)ncn1 [Azoxystrobin, azoxystrobin]
Observed efficacy (Botrytis cinerea; [1]): 5% | Observed efficacy (Pyricularia oryzae; 0.004 ppm): 4% | Observed efficacy (Pyricularia oryzae; 0.016 ppm): 44% | Observed efficacy (Septoria tritici; single active, 0.004 ppm): 5% | Observed efficacy (Septoria tritici; single active, 0.016 ppm): 2% | Observed efficacy (Septoria tritici; single active, 0.063 ppm): 26%

O=C(Nc1ccccc1-c1ccc(Cl)cc1)c1cccnc1Cl [Boscalid, boscalid]
inhibition of growth at 1 ppm (Botrytis cinerea; [2]): 63% | inhibition of growth at 0.25 ppm (Pyricularia oryzae; [3]): 2% | inhibition of growth at 4 ppm (Pyricularia oryzae; [3]): 10% | inhibition of growth at 1 ppm (Septoria tritici; [4]): 58%

COc1cc(C2=NC(C)(C)C(F)(F)c3ccccc32)cnc1C(F)F [Compound 1-4]
inhibition of growth at 1 ppm (Botrytis cinerea; [2]): 12% | inhibition of growth at 4 ppm (Botrytis cinerea; [5]): 21% | inhibition of growth at 16 ppm (Botrytis cinerea; [6]): 41% | inhibition of growth at 0.063 ppm (Pyricularia oryzae; [3]): 18% | inhibition of growth at 0.25 ppm (Pyricularia oryzae; [3]): 23% | inhibition of growth at 1 ppm (Pyricularia oryzae; [3]): 29% | inhibition of growth at 4 ppm (Pyricularia oryzae; [3]): 42% | inhibition of growth at 0.25 ppm (Septoria tritici; [7]): 7% | inhibition of growth at 1 ppm (Septoria tritici; [4]): 8% | inhibition of growth at 4 ppm (Septoria tritici; [8]): 1% | inhibition of growth at 16 ppm (Septoria tritici; [9]): 17%

Cc1cc(C2CC2)nc(Nc2ccccc2)n1 [Cyprodinil, cyprodinil]
inhibition of growth at 4 ppm (Botrytis cinerea; [5]): 53% | inhibition of growth at 1 ppm (Pyricularia oryzae; [3]): 50% | inhibition of growth at 4 ppm (Pyricularia oryzae; [3]): 61% | inhibition of growth at 4 ppm (Septoria tritici; [8]): 10%

CC1COC(Cn2cncn2)(c2ccc(Oc3ccc(Cl)cc3)cc2Cl)O1 (centres unmarked) [Difenoconazol, difenoconazole]
inhibition of growth at 0.25 ppm (Botrytis cinerea; Botrytis cinerea, 168 h, single active compound, 0.25 ppm, read-out: Observed efficacy): 21% | inhibition of growth at 0.063 ppm (Pyricularia oryzae; [3]): 2% | inhibition of growth at 0.25 ppm (Pyricularia oryzae; [3]): 11% | inhibition of growth at 0.016 ppm (Septoria tritici; [10]): 22%

CNC(=O)/C(=N/OC)c1ccccc1COc1cc(C)ccc1C [Dimoxystrobin, dimoxystrobin]
Observed efficacy (Botrytis cinerea; [1]): 0% | Observed efficacy (Botrytis cinerea; [11]): 12% | Observed efficacy (Septoria tritici; single active, 0.016 ppm): 2% | Observed efficacy (Septoria tritici; single active, 0.063 ppm): 27%

COc1ccnc(C(=O)N[C@@H](C)C(=O)O[C@@H](C)C(c2ccc(F)cc2)c2ccc(F)cc2)c1OC(C)=O [Florylpicoxamid, florylpicoxamid]
Observed efficacy (Botrytis cinerea; [11]): 2% | Observed efficacy (Botrytis cinerea; single active compound, 1 ppm): 12% | Observed efficacy (Pyricularia oryzae; 0.016 ppm): 49% | Observed efficacy (Septoria tritici; single active, 0.063 ppm): 54% | Observed efficacy (Septoria tritici; single active, 0.25 ppm): 79%

O=[N+]([O-])c1cc(C(F)(F)F)c(Cl)c([N+](=O)[O-])c1Nc1ncc(C(F)(F)F)cc1Cl [Fluazinam, fluazinam]
inhibition of growth at 0.063 ppm (Pyricularia oryzae; [3]): 6% | inhibition of growth at 0.25 ppm (Sclerotinia sclerotiorum; [11]): 58%

N#Cc1c[nH]cc1-c1cccc2c1OC(F)(F)O2 [Fludioxonil, fludioxonil]
inhibition of growth at 0.004 ppm (Pyricularia oryzae; [3]): 16% | inhibition of growth at 0.016 ppm (Pyricularia oryzae; [3]): 35% | inhibition of growth at 0.063 ppm (Pyricularia oryzae; [3]): 40% | inhibition of growth at 0.25 ppm (Septoria tritici; [12]): 10% | inhibition of growth at 0.016 ppm (Sclerotinia sclerotiorum): 13%

CC1CC(C)(C)c2c(F)ccc(NC(=O)c3cn(C)nc3C(F)F)c21 (centres unmarked) [Fluindapyr, fluindapyr]
Observed efficacy (Botrytis cinerea; [11]): 30% | Observed efficacy (Pyricularia oryzae; 1 ppm): 41% | Observed efficacy (Septoria tritici; single active, 0.25 ppm): 22% | Observed efficacy (Septoria tritici; single active, 1 ppm): 67%

O=C(NCCc1ncc(C(F)(F)F)cc1Cl)c1ccccc1C(F)(F)F [Fluopyram, fluopyram]
inhibition of growth at 0.25 ppm (Pyricularia oryzae; [3]): 7% | inhibition of growth at 0.25 ppm (Septoria tritici; [7]): 23%

Cn1cc(C(=O)Nc2ccccc2-c2cc(F)c(F)c(F)c2)c(C(F)F)n1 [Fluxapyroxad, fluxapyroxad]
Observed efficacy (Botrytis cinerea; [1]): 28% | Observed efficacy (Pyricularia oryzae; 0.063 ppm): 8% | Observed efficacy (Septoria tritici; single active, 0.063 ppm): 24%

C=CCOC(Cn1ccnc1)c1ccc(Cl)cc1Cl (centres unmarked) [Imazalil, imazalil]
inhibition of growth at 1 ppm (Botrytis cinerea; [2]): 54% | inhibition of growth at 1 ppm (Pyricularia oryzae; [3]): 20%

Cc1cc(OC(C)C)ccc1C(=O)C(C)(C)NC(=O)c1sccc1C [Isofetamid, isofetamid]
Observed efficacy (Botrytis cinerea; single active compound, 1 ppm): 68% | Observed efficacy (Pyricularia oryzae; 1 ppm): 1% | Observed efficacy (Pyricularia oryzae; 4 ppm): 10% | Observed efficacy (Septoria tritici; single active, 0.25 ppm): 44%

CC(C)c1ccc(Cl)cc1CN(C(=O)c1c(C(F)F)nn(C)c1F)C1CC1 [Isoflucypram, isoflucypram]
Observed efficacy (Botrytis cinerea; [11]): 59% | Observed efficacy (Pyricularia oryzae; 1 ppm): 14% | Observed efficacy (Septoria tritici; single active, 0.063 ppm): 72%

CNC(=O)C(OC)c1ccccc1COc1cc(C)ccc1C (centres unmarked) [Mandestrobin, mandestrobin]
Observed efficacy (Pyricularia oryzae; 1 ppm): 9% | Observed efficacy (Septoria tritici; single active, 1 ppm): 11%

CC(O)(Cn1cncn1)c1ccc(Oc2ccc(Cl)cc2)cc1C(F)(F)F (centres unmarked) [Mefentrifluconazol, mefentrifluconazole]
Observed efficacy (Botrytis cinerea; single active compound, 0.016 ppm): 10% | Observed efficacy (Pyricularia oryzae; 0.016 ppm): 7%

CC#Cc1cc(C)nc(Nc2ccccc2)n1 [Mepanipyrim, mepanipyrim]
inhibition of growth at 1 ppm (Botrytis cinerea; [2]): 63% | inhibition of growth at 4 ppm (Botrytis cinerea; [5]): 72% | inhibition of growth at 0.25 ppm (Pyricularia oryzae; [3]): 3% | inhibition of growth at 1 ppm (Pyricularia oryzae; [3]): 45% | inhibition of growth at 4 ppm (Pyricularia oryzae; [3]): 64%

COCC(=O)N(c1c(C)cccc1C)C(C)C(=O)OC (centres unmarked) [Metalaxyl, metalaxyl]
inhibition of growth at 4 ppm (Botrytis cinerea; [5]): 19% | inhibition of growth at 1 ppm (Pyricularia oryzae; [3]): 4% | inhibition of growth at 4 ppm (Pyricularia oryzae; [3]): 11%

CC1(C)CCC(Cc2ccc(Cl)cc2)C1(O)Cn1cncn1 (centres unmarked) [Metconazol]
Observed efficacy (Septoria tritici; single active, 0.063 ppm): 30%

Cc1cccc(-n2nnn(C)c2=O)c1COc1ccn(-c2ccc(Cl)cc2)n1 [Methyltetraprol, metyltetrapole]
Observed efficacy (Pyricularia oryzae; 0.016 ppm): 24% | Observed efficacy (Septoria tritici; single active, 0.004 ppm): 5% | Observed efficacy (Septoria tritici; single active, 0.016 ppm): 22%

COc1cc(C)c(C(=O)c2c(OC)ccc(Br)c2C)c(OC)c1OC [Metrafenon, metrafenone]
inhibition of growth at 4 ppm (Botrytis cinerea; [5]): 3% | inhibition of growth at 16 ppm (Botrytis cinerea; [6]): 18% | inhibition of growth at 1 ppm (Pyricularia oryzae; [3]): 2% | inhibition of growth at 4 ppm (Pyricularia oryzae; [3]): 7% | inhibition of growth at 4 ppm (Septoria tritici; [8]): 4% | inhibition of growth at 16 ppm (Septoria tritici; [9]): 16%

C=CCOC1=NS(=O)(=O)c2ccccc21 [Probenazol, probenazole]
inhibition of growth at 63 ppm (Botrytis cinerea; [6]): 22% | inhibition of growth at 4 ppm (Pyricularia oryzae; [3]): 2% | inhibition of growth at 16 ppm (Pyricularia oryzae; [3]): 12% | inhibition of growth at 4 ppm (Septoria tritici; [8]): 4%

OC(Cc1ccccc1Cl)(Cn1nc[nH]c1=S)C1(Cl)CC1 (centres unmarked) [Prothioconazol, prothioconazole]
inhibition of growth at 0.25 ppm (Pyricularia oryzae; [3]): 12% | inhibition of growth at 0.063 ppm (Septoria tritici; [13]): 1%

CON(C(=O)c1cn(C)nc1C(F)F)C(C)Cc1c(Cl)cc(Cl)cc1Cl (centres unmarked) [Pydiflumetofen, pydiflumetofen]
Observed efficacy (Pyricularia oryzae; 1 ppm): 44%

COC(=O)N(OC)c1ccccc1COc1ccn(-c2ccc(Cl)cc2)n1 [Pyraclostrobin, pyraclostrobin]
inhibition of growth at 0.001 ppm (Pyricularia oryzae; [3]): 4% | inhibition of growth at 0.004 ppm (Pyricularia oryzae; [3]): 14% | inhibition of growth at 0.004 ppm (Septoria tritici; [14]): 7% | inhibition of growth at 0.016 ppm (Septoria tritici; [10]): 52%

O=C1CCc2cccc3c2N1CC3 [Pyroquilon, pyroquilon]
inhibition of growth at 1 ppm (Botrytis cinerea; [15]): 2% | inhibition of growth at 1 ppm (Pyricularia oryzae; [3]): 7%

S1SSSSSSS1 [Sulfur, sulfur]
inhibition of growth at 4 ppm (Pyricularia oryzae; [3]): 54% | inhibition of growth at 1 ppm (Septoria tritici; [12]): 18%

FC(F)C(F)(F)OCC(Cn1cncn1)c1ccc(Cl)cc1Cl (centres unmarked) [Tetraconazol, tetraconazole]
inhibition of growth at 0.063 ppm (Botrytis cinerea; [16]): 5% | inhibition of growth at 0.063 ppm (Pyricularia oryzae; [3]): 7% | inhibition of growth at 0.004 ppm (Septoria tritici; [14]): 6% | inhibition of growth at 0.063 ppm (Septoria tritici; [13]): 12%

Cc1nc(C(F)(F)F)c(C(=O)Nc2c(Br)cc(OC(F)(F)F)cc2Br)s1 [Thifluzamid, thifluzamide]
inhibition of growth at 4 ppm (Botrytis cinerea; [15]): 37% | inhibition of growth at 1 ppm (Pyricularia oryzae; [3]): 2% | inhibition of growth at 4 ppm (Pyricularia oryzae; [3]): 16% | inhibition of growth at 4 ppm (Septoria tritici; [12]): 69%

Cc1ccc(NC(=O)c2snnc2C)cc1Cl [Tiadinil, tiadinil]
inhibition of growth at 16 ppm (Botrytis cinerea; [6]): 6% | inhibition of growth at 63 ppm (Botrytis cinerea; [6]): 19% | inhibition of growth at 4 ppm (Pyricularia oryzae; [3]): 2% | inhibition of growth at 16 ppm (Pyricularia oryzae; [3]): 10% | inhibition of growth at 63 ppm (Pyricularia oryzae; [3]): 21% | inhibition of growth at 4 ppm (Septoria tritici; [8]): 21% | inhibition of growth at 16 ppm (Septoria tritici; [9]): 18% | inhibition of growth at 63 ppm (Septoria tritici; Zymoseptoria tritici, 168 h, single active, 63 ppm, read-out: Observed efficacy): 30%

Cc1cccc2sc3nncn3c12 [Tricyclazol, tricyclazole]
inhibition of growth at 4 ppm (Botrytis cinerea; [5]): 2% | inhibition of growth at 4 ppm (Pyricularia oryzae; [3]): 6%

CON=C(C(=O)OC)c1ccccc1CON=C(C)c1cccc(C(F)(F)F)c1 [Trifloxystrobin, trifloxystrobin]
inhibition of growth at 0.063 ppm (Botrytis cinerea; [16]): 4% | inhibition of growth at 0.004 ppm (Pyricularia oryzae; [3]): 8% | inhibition of growth at 0.016 ppm (Pyricularia oryzae; [3]): 23% | inhibition of growth at 0.016 ppm (Septoria tritici; [10]): 27%

CC1(C)CCC(=Cc2ccc(Cl)cc2)C1(O)Cn1cncn1 (centres unmarked) [Triticonazol, triticonazole]
inhibition of growth at 1 ppm (Pyricularia oryzae; [3]): 10%

OCC1=C[C@H](N[C@H]2C[C@H](CO)[C@@H](O[C@@H]3O[C@H](CO)[C@@H](O)[C@H](O)[C@H]3O)[C@H](O)[C@H]2O)[C@H](O)[C@@H](O)[C@@H]1O [Validamycin, validamycin]
inhibition of growth at 63 ppm (Pyricularia oryzae; [3]): 10%

Cc1nc2c(F)c(F)ccc2cc1Oc1cccc(F)c1C(C)(C)O [drawing 29]
inhibition of growth at 4 ppm (Pyricularia oryzae; [3]): 50%

Cc1nc2c(F)c(F)ccc2cc1Oc1cccc(F)c1C(C)(C)O [drawing 43]
inhibition of growth at 1 ppm (Septoria tritici; [12]): 45%

Mancozeb
Observed efficacy (Septoria tritici; single active, 1 ppm): 16%

inpyrfluxam
Observed efficacy (Botrytis cinerea; [11]): 44% | Observed efficacy (Septoria tritici; single active, 0.25 ppm): 22%

metiram
Observed efficacy (Pyricularia oryzae; 4 ppm): 8% | Observed efficacy (Septoria tritici; single active, 1 ppm): 2% | Observed efficacy (Septoria tritici; single active, 4 ppm): 4%

prohexadione-calcium [Prohexadion-ca]
Observed efficacy (Pyricularia oryzae; 63 ppm): 8% | Observed efficacy (Septoria tritici; single active, 63 ppm): 12%
